Measured values reported in ChEMBL document CHEMBL4507319 (2021).

Legend:
[1] = biological target: Cyclin-dependent kinase 13 (Homo sapiens) (UniProt Q14004); conditions: Compound concentration 1000.0 nM
[2] = biological target: Serine/threonine-protein kinase 35 (Homo sapiens) (UniProt Q8TDR2); conditions: Compound concentration 1000.0 nM
[3] = biological target: Ribosomal protein S6 kinase alpha-5 (Homo sapiens, UniProt O75582); conditions: Compound concentration 1000.0 nM
[4] = biological target: Phosphatidylinositol 4,5-bisphosphate 3-kinase catalytic subunit delta isoform (Homo sapiens) (UniProt O00329); conditions: Compound concentration 1000.0 nM
[5] = biological target: Glycogen synthase kinase-3 alpha (Homo sapiens) (UniProt P49840); conditions: Compound concentration 1000.0 nM
[6] = biological target: T1, Mitogen-activated protein kinase 12 (Homo sapiens) (UniProt P53778); conditions: Compound concentration 1000.0 nM
T1 sequence (whole entry): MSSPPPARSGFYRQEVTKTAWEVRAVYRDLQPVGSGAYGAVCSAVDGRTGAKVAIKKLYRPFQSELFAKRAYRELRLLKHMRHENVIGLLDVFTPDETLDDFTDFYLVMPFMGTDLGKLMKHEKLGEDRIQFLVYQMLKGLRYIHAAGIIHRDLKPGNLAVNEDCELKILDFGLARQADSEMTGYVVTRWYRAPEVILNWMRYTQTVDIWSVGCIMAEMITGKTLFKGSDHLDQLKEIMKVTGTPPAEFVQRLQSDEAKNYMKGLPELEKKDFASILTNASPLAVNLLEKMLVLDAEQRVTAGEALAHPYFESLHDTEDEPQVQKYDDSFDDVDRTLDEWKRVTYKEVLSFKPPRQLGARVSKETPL

[7] = biological target: Macrophage colony-stimulating factor 1 receptor (Homo sapiens) (UniProt P07333); conditions: Compound concentration 1000.0 nM
[8] = biological target: Phosphatidylinositol 4,5-bisphosphate 3-kinase catalytic subunit alpha isoform (Homo sapiens) (UniProt P42336); conditions: Compound concentration 1000.0 nM
[9] = biological target: Death-associated protein kinase 1 (Homo sapiens) (UniProt P53355); conditions: Compound concentration 1000.0 nM
[10] = test system: Phosphatidylinositol 4,5-bisphosphate 3-kinase catalytic subunit alpha isoform (Homo sapiens), P42336 [H1047L]; conditions: Compound concentration 1000.0 nM
[11] = biological target: Mitogen-activated protein kinase 10 (Homo sapiens) (UniProt P53779); conditions: Compound concentration 1000.0 nM
[12] = biological target: Serine/threonine-protein kinase 26 (Homo sapiens) (UniProt Q9P289); conditions: Compound concentration 1000.0 nM
[13] = biological target: Platelet-derived growth factor receptor beta (Homo sapiens) (UniProt P09619); conditions: Compound concentration 1000.0 nM
[14] = biological target: Calcium/calmodulin-dependent protein kinase type 1B (Homo sapiens) (UniProt Q6P2M8); conditions: Compound concentration 1000.0 nM
[15] = biological target: Cyclin-dependent kinase 19 (Homo sapiens) (UniProt Q9BWU1); conditions: Compound concentration 1000.0 nM
[16] = biological target: T2, Serine/threonine-protein kinase Sgk3 (Homo sapiens) (UniProt Q96BR1); conditions: Compound concentration 1000.0 nM
T2 sequence (whole entry): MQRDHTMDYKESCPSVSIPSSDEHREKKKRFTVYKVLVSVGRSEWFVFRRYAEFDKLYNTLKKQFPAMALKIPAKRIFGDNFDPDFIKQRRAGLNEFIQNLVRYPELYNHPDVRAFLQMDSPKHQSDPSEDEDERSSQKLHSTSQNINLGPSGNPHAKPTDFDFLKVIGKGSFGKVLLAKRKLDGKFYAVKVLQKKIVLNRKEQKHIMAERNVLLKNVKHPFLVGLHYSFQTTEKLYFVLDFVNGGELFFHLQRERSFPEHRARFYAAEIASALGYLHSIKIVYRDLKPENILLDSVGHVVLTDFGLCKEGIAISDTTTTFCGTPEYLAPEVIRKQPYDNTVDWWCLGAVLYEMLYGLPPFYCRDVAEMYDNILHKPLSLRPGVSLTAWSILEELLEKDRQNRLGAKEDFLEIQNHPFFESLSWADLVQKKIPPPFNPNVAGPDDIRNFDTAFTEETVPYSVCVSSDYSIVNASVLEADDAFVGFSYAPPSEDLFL

[17] = biological target: Membrane-associated tyrosine- and threonine-specific cdc2-inhibitory kinase (Homo sapiens) (UniProt Q99640); conditions: Compound concentration 1000.0 nM
[18] = biological target: Sigma non-opioid intracellular receptor 1 (Homo sapiens) (UniProt Q99720); conditions: Compound concentration 10.0 uM
[19] = biological target: T3, Ephrin type-A receptor 3 (Homo sapiens) (UniProt P29320); conditions: Compound concentration 1000.0 nM
T3 sequence (whole entry): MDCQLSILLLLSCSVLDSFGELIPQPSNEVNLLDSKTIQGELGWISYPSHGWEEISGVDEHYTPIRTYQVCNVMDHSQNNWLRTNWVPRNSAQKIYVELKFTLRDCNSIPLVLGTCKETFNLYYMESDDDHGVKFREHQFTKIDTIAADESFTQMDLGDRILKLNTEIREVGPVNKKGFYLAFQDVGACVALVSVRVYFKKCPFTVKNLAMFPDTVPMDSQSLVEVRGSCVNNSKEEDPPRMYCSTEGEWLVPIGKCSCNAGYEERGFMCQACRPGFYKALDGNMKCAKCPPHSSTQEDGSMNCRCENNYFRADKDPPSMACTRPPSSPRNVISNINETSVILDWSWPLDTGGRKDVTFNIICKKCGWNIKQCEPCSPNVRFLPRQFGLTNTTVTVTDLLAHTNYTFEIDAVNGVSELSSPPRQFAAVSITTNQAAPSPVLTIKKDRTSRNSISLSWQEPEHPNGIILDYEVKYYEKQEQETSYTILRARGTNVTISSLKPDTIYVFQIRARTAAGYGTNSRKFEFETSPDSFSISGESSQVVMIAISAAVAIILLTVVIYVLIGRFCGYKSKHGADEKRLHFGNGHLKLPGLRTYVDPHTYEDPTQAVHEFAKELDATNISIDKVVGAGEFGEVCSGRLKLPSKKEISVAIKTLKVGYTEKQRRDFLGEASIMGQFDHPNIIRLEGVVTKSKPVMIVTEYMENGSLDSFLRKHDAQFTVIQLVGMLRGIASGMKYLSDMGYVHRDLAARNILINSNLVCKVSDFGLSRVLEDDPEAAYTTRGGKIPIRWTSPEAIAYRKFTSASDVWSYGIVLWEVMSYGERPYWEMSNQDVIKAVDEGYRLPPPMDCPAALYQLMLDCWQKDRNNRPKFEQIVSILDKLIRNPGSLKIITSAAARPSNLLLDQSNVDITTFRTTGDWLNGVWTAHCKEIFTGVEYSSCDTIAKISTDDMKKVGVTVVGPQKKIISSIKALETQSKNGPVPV

[20] = biological target: Tyrosine-protein kinase CSK (Homo sapiens) (UniProt P41240); conditions: Compound concentration 1000.0 nM

Sequence of Serine/threonine-protein kinase 26 (Homo sapiens) (Q9P289 2-416 limits assumed): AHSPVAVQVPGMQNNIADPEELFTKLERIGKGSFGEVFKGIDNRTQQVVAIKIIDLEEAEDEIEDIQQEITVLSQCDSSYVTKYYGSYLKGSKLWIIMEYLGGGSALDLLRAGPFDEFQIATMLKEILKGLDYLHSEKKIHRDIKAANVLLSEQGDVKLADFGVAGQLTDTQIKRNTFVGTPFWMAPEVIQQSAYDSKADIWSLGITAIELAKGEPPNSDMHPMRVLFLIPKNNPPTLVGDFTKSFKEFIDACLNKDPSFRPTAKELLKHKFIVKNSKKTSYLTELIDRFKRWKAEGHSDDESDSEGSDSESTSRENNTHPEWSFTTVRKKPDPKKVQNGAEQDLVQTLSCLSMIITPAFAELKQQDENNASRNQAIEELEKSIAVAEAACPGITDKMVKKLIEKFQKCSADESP
Sequence of Calcium/calmodulin-dependent protein kinase type 1B (Homo sapiens) (Q6P2M8 whole entry): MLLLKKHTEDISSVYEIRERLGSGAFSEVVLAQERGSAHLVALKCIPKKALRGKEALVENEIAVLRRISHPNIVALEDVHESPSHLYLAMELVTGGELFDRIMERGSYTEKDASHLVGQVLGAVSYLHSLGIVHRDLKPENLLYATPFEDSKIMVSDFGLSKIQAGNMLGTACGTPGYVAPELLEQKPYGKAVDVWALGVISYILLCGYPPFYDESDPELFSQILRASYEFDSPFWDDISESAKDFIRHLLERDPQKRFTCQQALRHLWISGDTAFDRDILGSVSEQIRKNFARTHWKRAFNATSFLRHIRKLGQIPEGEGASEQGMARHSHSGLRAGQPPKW
Sequence of Cyclin-dependent kinase 19 (Homo sapiens) (Q9BWU1 whole entry): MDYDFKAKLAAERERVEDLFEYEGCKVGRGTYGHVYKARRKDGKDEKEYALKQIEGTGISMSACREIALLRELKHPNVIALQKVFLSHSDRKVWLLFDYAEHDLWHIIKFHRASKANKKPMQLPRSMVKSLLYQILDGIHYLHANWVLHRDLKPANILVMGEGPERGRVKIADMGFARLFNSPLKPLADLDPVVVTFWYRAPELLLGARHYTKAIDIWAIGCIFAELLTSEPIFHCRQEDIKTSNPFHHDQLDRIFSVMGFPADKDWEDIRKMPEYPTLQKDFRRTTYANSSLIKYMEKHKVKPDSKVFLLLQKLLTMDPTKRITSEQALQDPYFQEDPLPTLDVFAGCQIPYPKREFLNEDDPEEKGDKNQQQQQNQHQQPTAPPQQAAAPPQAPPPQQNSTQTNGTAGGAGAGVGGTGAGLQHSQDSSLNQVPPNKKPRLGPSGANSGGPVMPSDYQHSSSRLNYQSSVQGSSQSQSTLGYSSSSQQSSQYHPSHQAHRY
Sequence of Ribosomal protein S6 kinase alpha-5 (O75582 whole entry, looked up, canonical isoform): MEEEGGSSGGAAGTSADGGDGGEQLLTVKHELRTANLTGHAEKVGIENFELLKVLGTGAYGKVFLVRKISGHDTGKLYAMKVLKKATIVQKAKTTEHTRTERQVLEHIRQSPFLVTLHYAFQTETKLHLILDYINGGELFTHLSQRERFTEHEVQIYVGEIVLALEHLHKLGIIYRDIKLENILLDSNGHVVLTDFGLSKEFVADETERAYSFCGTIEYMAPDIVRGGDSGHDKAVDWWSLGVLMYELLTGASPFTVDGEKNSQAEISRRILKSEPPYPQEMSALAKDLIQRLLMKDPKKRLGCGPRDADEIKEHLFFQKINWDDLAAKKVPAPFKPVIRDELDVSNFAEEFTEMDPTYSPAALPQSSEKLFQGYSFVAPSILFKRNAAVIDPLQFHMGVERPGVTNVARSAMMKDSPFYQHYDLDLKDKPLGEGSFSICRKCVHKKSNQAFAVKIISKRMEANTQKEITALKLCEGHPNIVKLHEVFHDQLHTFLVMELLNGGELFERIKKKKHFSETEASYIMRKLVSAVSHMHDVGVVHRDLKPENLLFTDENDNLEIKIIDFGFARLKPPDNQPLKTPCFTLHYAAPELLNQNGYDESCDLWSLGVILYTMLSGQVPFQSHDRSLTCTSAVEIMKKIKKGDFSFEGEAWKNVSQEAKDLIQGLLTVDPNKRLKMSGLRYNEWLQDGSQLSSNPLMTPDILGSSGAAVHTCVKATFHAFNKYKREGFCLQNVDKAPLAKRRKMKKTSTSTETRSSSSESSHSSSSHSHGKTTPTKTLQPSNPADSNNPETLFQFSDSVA
Sequence of Mitogen-activated protein kinase 10 (Homo sapiens) (P53779 whole entry): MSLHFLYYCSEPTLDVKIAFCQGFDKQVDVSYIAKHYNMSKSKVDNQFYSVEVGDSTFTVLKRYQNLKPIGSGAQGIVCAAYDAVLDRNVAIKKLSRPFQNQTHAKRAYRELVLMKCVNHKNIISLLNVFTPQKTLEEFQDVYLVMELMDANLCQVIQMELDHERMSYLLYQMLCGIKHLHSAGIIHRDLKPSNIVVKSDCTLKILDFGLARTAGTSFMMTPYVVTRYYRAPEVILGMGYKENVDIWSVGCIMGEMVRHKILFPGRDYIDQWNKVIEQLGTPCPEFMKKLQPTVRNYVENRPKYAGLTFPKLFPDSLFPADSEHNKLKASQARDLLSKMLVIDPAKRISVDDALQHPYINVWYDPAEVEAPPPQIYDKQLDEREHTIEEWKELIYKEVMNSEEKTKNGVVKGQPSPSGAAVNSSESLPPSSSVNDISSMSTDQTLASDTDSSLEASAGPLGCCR
Sequence of Glycogen synthase kinase-3 alpha (Homo sapiens) (P49840 2-483 limits assumed): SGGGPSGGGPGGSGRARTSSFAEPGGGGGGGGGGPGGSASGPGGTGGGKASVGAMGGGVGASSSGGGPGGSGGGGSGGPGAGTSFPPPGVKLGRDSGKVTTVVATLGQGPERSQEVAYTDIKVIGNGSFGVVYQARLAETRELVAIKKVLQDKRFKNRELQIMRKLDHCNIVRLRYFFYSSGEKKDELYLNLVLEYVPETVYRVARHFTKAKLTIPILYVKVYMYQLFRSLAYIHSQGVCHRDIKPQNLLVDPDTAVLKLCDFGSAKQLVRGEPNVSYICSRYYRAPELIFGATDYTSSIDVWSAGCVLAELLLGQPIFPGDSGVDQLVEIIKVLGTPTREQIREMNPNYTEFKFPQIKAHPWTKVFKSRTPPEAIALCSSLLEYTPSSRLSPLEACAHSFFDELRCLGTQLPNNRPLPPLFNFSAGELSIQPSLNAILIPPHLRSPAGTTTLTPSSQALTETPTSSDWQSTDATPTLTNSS
Sequence of Serine/threonine-protein kinase 35 (Homo sapiens) (Q8TDR2 whole entry): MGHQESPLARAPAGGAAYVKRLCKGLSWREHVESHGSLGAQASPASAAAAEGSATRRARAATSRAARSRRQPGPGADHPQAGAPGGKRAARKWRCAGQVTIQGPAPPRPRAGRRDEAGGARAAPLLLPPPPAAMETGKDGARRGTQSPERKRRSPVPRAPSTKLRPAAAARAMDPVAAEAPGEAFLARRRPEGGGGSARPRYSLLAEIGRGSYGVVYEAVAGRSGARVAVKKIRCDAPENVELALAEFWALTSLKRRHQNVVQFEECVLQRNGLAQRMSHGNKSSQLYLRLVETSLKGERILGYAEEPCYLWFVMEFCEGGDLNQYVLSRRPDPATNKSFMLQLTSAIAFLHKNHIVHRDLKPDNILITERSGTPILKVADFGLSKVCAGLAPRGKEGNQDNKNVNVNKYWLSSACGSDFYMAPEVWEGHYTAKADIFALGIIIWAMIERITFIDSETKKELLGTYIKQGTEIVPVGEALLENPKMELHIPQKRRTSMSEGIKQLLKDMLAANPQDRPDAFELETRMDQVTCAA
Sequence of Death-associated protein kinase 1 (Homo sapiens) (P53355 whole entry, looked up, canonical isoform): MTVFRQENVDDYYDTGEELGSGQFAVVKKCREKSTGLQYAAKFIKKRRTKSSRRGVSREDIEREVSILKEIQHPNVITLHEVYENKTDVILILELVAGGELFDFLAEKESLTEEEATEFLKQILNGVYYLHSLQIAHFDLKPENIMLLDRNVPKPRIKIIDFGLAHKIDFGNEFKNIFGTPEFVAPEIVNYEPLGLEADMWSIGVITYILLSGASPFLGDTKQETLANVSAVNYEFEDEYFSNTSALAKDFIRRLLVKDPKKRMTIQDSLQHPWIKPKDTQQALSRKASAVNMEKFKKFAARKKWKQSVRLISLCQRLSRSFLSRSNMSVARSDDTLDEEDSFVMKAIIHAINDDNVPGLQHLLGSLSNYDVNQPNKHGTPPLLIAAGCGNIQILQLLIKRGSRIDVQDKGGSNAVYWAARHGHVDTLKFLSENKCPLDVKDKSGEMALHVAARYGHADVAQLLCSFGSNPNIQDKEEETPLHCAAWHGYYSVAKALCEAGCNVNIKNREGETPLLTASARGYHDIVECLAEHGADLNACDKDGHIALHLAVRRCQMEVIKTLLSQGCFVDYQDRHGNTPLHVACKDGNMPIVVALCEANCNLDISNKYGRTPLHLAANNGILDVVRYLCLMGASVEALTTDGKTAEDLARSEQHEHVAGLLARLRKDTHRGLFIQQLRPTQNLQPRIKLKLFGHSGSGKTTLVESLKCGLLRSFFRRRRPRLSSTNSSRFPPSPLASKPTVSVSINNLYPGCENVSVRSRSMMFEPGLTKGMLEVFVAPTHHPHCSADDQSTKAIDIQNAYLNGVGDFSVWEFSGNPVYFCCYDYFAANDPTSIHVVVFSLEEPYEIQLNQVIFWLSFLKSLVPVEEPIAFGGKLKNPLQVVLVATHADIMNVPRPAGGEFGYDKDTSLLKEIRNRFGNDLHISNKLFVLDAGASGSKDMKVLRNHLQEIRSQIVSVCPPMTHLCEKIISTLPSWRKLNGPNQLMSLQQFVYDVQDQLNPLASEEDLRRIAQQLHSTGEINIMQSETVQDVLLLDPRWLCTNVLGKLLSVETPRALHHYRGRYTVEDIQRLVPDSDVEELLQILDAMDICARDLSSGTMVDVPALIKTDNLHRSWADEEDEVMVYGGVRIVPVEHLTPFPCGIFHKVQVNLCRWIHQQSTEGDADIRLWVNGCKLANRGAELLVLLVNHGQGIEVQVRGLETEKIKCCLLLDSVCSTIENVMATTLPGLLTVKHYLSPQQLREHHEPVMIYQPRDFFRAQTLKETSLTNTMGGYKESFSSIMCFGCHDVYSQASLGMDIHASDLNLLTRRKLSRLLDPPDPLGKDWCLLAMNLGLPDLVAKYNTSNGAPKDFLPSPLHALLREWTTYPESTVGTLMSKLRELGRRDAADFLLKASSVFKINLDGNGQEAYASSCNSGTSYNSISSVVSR

CCc1ccccc1C(=O)Nc1n[nH]c2c(C)c(F)c(C3C(C#N)=C(C)N(C)C(C)=C3C#N)cc12 [BAY-3827]
inactive: residual activity [1] 100% | residual activity [2] 100% | residual activity [3] 90% | residual activity [4] 90% | residual activity [5] 90% | residual activity [6] 76% | residual activity [7] 100% | residual activity [8] 100% | residual activity [9] 100% | residual activity [10] 100% | residual activity [11] 92% | residual activity [12] 98% | residual activity [13] 82% | residual activity [14] 100% | residual activity [15] 100% | residual activity [16] 91% | residual activity [17] 100% | inhibition [18] 30.5% | residual activity [19] 100% | residual activity [20] 98%

CC1=C(C#N)C(c2ccc3c(c2)c(NC(=O)c2ccccc2C)nn3C)C(C#N)=C(C)N1 [BAY-974]
inactive: residual activity [1] 87% | residual activity [2] 86% | residual activity [3] 87% | residual activity [4] 71% | residual activity [5] 100% | residual activity [6] 68% | residual activity [7] 99% | residual activity [8] 100% | residual activity [9] 89% | residual activity [10] 100% | residual activity [11] 100% | residual activity [12] 100% | residual activity [13] 94% | residual activity [14] 85% | residual activity [15] 74% | residual activity [16] 95% | residual activity [17] 99% | inhibition [18] 37.9% | residual activity [19] 99% | residual activity [20] 85%
